Data published in US8663639B2, “Formulations for treating ocular diseases and conditions” (Santen Pharmaceutical Co., Ltd., priority 2005, dated 2014).
Where two headings read alike, the source gives them in different places.

Experiment: Topical administration (eye drops) of formulation #340, rapamycin levels in blood, cornea, retina choroid, sclera and vitreous (Tables 3-6)
Format: in vivo
Settings: rabbit, formulation #340 topical; for concentration at 8 day / concentration at 10 day / concentration at 12 day / concentration at 14 day: Group III (two drops once a day on both eyes for 6 days)
Protocol: Both eyes (or one eye depending on the study) of each animal received one or two drops (40 μl per drop) of the studied formulations using a calibrated pipette on day 0 (day of dosing).
For Tables 3-6, the solution of Example 46 (formulation #340) was administered two drops twice a day on both eyes, one time for Group I, two drops once a day on one eye, one time for Group II, and two drops once a day on both eyes for 6 days in Group III. In Group II, the right eye (OD) but not the left eye (OS) received eye drops. In a further study, one drop of the formulation #340 (40 μL containing 880 μg rapamycin) was administered on day zero.

Compound: CO[C@H]1C[C@@H]2CC[C@@H](C)[C@@](O)(O2)C(=O)C(=O)N2CCCC[C@H]2C(=O)O[C@H]([C@H](C)C[C@@H]2CC[C@@H](O)[C@H](OC)C2)CC(=O)[C@H](C)/C=C(\C)[C@@H](O)[C@@H](OC)C(=O)[C@H](C)C[C@H](C)/C=C/C=C/C=C/1C [Rapamycin, rapamycin]
- concentration at 1 day (sclera, 2 drops (40 μl per drop) on one eye (right eye, OD), Group II (two drops once a day on one eye, one time), OD, day 1, n = 1, read-out: Rapamycin level, sclera): 421 ng/g
- concentration at 2 day (sclera, 2 drops (40 μl per drop) on one eye (right eye, OD), Group II (two drops once a day on one eye, one time), OD, day 2, n = 1, read-out: Rapamycin level, sclera): 1350 ng/g
- concentration at 3 day (sclera, 2 drops (40 μl per drop) on one eye (right eye, OD), Group II (two drops once a day on one eye, one time), OD, day 3, n = 1, read-out: Rapamycin level, sclera): 541 ng/g
- concentration at 1 day (sclera, 2 drops (40 μl per drop) on one eye (right eye, OD), Group II (two drops once a day on one eye, one time), OS, day 1, n = 1, read-out: Rapamycin level, sclera): 34.2 ng/g
- concentration at 2 day (sclera, 2 drops (40 μl per drop) on one eye (right eye, OD), Group II (two drops once a day on one eye, one time), OS, day 2, n = 1, read-out: Rapamycin level, sclera): 144 ng/g
- concentration at 3 day (sclera, 2 drops (40 μl per drop) on one eye (right eye, OD), Group II (two drops once a day on one eye, one time), OS, day 3, n = 1, read-out: Rapamycin level, sclera): 104 ng/g
- concentration at 8 day (sclera, 2 drops (40 μl per drop) per eye, both eyes, day 8, n = 2, read-out: Rapamycin level, sclera): 895 ng/g
- concentration at 10 day (sclera, 2 drops (40 μl per drop) per eye, both eyes, day 10, n = 2, read-out: Rapamycin level, sclera): 613 ng/g
- concentration at 12 day (sclera, 2 drops (40 μl per drop) per eye, both eyes, day 12, n = 2, read-out: Rapamycin level, sclera): 131 ng/g
- concentration at 14 day (sclera, 2 drops (40 μl per drop) per eye, both eyes, day 14, n = 2, read-out: Rapamycin level, sclera): 420 ng/g
- concentration at 1 day (sclera, 2 drops (40 μl per drop) per eye, both eyes, twice a day, Group I (two drops twice a day on both eyes, one time), day 1, n = 2, read-out: Rapamycin level, sclera): 90.8 ng/g
- concentration at 2 day (sclera, 2 drops (40 μl per drop) per eye, both eyes, twice a day, Group I (two drops twice a day on both eyes, one time), day 2, n = 2, read-out: Rapamycin level, sclera): 751 ng/g
- concentration at 3 day (sclera, 2 drops (40 μl per drop) per eye, both eyes, twice a day, Group I (two drops twice a day on both eyes, one time), day 3, n = 2, read-out: Rapamycin level, sclera): 351 ng/g
- concentration at 1 day (vitreous, 2 drops (40 μl per drop) on one eye (right eye, OD), Group II (two drops once a day on one eye, one time), OD, day 1, n = 1, read-out: Rapamycin level, vitreous): 2.06 ng/mL
- concentration at 2 day (vitreous, 2 drops (40 μl per drop) on one eye (right eye, OD), Group II (two drops once a day on one eye, one time), OD, day 2, n = 1, read-out: Rapamycin level, vitreous): 5.01 ng/mL
- concentration at 3 day (vitreous, 2 drops (40 μl per drop) on one eye (right eye, OD), Group II (two drops once a day on one eye, one time), OD, day 3, n = 1, read-out: Rapamycin level, vitreous): 3.96 ng/mL
- concentration at 1 day (vitreous, 2 drops (40 μl per drop) on one eye (right eye, OD), Group II (two drops once a day on one eye, one time), OS, day 1, n = 1, read-out: Rapamycin level, vitreous): 1 ng/mL
- concentration at 2 day (vitreous, 2 drops (40 μl per drop) on one eye (right eye, OD), Group II (two drops once a day on one eye, one time), OS, day 2, n = 1, read-out: Rapamycin level, vitreous): 2.95 ng/mL
- concentration at 3 day (vitreous, 2 drops (40 μl per drop) on one eye (right eye, OD), Group II (two drops once a day on one eye, one time), OS, day 3, n = 1, read-out: Rapamycin level, vitreous): 4 ng/mL
- concentration at 8 day (vitreous, 2 drops (40 μl per drop) per eye, both eyes, day 8, n = 2, read-out: Rapamycin level, vitreous): 19.7 ng/mL
- concentration at 10 day (vitreous, 2 drops (40 μl per drop) per eye, both eyes, day 10, n = 2, read-out: Rapamycin level, vitreous): 7.9 ng/mL
- concentration at 12 day (vitreous, 2 drops (40 μl per drop) per eye, both eyes, day 12, n = 2, read-out: Rapamycin level, vitreous): 1.46 ng/mL
- concentration at 14 day (vitreous, 2 drops (40 μl per drop) per eye, both eyes, day 14, n = 2, read-out: Rapamycin level, vitreous): 5.66 ng/mL
- concentration at 1 day (vitreous, 2 drops (40 μl per drop) per eye, both eyes, twice a day, Group I (two drops twice a day on both eyes, one time), day 1, n = 2, read-out: Rapamycin level, vitreous): 1.24 ng/mL
- concentration at 2 day (vitreous, 2 drops (40 μl per drop) per eye, both eyes, twice a day, Group I (two drops twice a day on both eyes, one time), day 2, n = 2, read-out: Rapamycin level, vitreous): 5.41 ng/mL
- concentration at 3 day (vitreous, 2 drops (40 μl per drop) per eye, both eyes, twice a day, Group I (two drops twice a day on both eyes, one time), day 3, n = 2, read-out: Rapamycin level, vitreous): 3.03 ng/mL
